Laboratory results taken from patent US9926302B2, “Heteroaryl substituted heterocyclyl sulfones” (priority 2014, dated 2018).

The molecules below were run against T1, Human CaV2.2 channels (Homo sapiens, UniProt Q00975) (assay: Fluorescence assay for CaV2.2 channels using potassium depolarization to induce channel opening (FLIPR, Fluo 4)). Conditions: 3 μM test compound; alternative assay buffer 30 mM KCl (inactivated channel state); HEK293 cells stably expressing human CaV2.2.
T1 construct: expressed in transfected cells
T1 sequence (P54289 947-1103): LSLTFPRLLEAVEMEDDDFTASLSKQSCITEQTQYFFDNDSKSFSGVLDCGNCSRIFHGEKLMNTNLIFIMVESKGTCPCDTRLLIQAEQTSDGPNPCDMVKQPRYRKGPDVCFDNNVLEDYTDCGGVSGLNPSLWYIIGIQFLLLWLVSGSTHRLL
T1 sequence (P54289 25-946): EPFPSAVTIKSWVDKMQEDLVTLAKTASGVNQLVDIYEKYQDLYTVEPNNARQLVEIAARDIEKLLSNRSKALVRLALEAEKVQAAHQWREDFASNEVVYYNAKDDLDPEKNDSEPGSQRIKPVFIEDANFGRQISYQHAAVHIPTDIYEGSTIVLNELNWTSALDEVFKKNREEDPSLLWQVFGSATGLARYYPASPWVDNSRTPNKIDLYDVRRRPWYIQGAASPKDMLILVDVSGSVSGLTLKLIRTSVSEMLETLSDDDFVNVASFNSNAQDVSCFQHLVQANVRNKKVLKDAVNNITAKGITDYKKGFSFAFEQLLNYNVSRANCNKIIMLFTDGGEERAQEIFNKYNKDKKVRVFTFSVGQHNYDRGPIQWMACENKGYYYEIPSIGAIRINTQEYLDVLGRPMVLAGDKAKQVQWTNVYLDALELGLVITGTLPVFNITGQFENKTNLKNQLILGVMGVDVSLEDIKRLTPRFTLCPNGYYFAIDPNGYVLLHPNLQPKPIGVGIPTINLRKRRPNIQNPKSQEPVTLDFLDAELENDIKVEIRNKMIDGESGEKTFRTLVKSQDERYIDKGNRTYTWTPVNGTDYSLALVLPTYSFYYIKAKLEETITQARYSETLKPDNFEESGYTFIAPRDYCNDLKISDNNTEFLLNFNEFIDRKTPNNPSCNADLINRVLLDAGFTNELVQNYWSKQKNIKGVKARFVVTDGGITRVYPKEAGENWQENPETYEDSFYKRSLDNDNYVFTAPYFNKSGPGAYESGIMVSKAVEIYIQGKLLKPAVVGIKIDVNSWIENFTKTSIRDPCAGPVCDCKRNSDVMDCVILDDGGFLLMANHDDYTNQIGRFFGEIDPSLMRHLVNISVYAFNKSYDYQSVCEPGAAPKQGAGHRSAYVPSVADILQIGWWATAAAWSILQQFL
T1 sequence (P54284 whole entry, further chain): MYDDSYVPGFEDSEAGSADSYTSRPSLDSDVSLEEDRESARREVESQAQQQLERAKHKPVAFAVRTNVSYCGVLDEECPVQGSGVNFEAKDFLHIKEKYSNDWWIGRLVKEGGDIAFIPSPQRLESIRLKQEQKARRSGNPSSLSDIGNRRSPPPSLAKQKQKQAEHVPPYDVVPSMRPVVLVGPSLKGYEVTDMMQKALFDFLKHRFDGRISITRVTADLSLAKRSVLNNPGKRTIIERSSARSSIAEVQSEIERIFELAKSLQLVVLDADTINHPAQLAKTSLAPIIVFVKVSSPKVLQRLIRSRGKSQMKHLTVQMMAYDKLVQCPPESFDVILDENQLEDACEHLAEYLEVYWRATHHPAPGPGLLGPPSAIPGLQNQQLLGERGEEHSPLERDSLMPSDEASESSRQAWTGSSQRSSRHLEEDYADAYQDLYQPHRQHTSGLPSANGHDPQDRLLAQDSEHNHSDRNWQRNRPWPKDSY
T1 sequence (Q00975 whole entry): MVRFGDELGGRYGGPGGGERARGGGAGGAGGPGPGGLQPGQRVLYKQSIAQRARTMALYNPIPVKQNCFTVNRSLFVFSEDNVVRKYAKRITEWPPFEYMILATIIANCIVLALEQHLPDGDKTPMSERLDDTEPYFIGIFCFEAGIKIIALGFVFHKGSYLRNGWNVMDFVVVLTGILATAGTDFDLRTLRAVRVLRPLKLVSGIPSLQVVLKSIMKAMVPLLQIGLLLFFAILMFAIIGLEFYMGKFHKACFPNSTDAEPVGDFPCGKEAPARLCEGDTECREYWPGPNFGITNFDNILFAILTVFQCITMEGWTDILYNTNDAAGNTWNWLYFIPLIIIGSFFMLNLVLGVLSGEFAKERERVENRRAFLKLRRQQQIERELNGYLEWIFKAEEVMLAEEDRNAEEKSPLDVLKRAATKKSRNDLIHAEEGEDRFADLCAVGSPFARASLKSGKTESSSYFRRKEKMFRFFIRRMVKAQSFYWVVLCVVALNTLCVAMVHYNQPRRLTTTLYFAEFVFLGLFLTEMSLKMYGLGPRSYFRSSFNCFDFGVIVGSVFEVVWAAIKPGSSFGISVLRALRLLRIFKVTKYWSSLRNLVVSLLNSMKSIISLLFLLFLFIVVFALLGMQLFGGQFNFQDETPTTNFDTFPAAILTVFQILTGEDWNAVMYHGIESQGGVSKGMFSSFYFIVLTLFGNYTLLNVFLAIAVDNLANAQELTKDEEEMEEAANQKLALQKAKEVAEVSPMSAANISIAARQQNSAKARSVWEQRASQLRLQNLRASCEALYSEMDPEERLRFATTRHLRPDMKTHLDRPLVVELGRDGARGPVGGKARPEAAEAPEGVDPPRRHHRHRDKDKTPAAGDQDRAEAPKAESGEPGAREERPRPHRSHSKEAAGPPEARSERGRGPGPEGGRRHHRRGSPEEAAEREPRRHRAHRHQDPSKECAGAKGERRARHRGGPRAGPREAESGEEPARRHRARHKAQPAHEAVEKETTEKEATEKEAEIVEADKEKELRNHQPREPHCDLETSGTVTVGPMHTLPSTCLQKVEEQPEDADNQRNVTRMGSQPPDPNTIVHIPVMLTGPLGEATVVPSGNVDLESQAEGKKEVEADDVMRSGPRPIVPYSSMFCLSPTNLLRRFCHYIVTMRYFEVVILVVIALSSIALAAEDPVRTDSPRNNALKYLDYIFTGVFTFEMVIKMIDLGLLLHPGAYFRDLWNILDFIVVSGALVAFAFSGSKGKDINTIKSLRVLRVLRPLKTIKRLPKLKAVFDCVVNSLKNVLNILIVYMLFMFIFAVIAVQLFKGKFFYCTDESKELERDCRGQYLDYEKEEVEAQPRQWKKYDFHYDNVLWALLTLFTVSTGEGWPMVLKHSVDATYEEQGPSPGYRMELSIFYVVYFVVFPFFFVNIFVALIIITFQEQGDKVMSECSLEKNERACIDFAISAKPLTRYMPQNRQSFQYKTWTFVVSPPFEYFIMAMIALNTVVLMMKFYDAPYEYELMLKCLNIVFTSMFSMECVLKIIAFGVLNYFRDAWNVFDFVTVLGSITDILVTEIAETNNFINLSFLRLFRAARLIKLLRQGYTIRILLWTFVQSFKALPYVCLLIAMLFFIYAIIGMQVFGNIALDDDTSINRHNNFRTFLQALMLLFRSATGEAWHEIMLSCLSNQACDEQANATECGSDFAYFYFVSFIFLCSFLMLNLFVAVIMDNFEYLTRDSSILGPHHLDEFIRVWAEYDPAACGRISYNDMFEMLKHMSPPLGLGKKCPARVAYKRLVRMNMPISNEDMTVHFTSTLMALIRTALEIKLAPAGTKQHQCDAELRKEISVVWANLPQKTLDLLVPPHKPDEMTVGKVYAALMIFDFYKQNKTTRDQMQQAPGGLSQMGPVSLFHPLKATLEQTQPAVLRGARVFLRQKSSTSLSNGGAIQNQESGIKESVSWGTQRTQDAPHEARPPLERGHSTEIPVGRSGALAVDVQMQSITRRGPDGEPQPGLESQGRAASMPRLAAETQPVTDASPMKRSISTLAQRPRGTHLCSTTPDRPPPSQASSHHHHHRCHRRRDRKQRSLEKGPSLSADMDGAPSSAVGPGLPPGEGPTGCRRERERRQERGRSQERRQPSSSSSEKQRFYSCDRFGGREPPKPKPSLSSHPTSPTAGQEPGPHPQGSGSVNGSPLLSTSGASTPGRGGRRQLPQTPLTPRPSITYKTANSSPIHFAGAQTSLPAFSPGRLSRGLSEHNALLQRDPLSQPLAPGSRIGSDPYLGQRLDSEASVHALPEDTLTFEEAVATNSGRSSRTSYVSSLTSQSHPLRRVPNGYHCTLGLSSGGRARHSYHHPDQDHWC
Type: cell-based
Method in brief: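 HEK293 cells stably co-expressing CaV2.2 with alpha2-delta and beta subunits plus Kir2.3, loaded with 2 μM Fluo 4 and pre-incubated 15 min at 25° C with compound in 1 mM or 30 mM KCl buffer (pH 7.4; latter promotes inactivated state). Depolarized by KCl addition; peak fluorescence amplitude normalized to baseline gives inhibition.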
For `CC1(S(=O)(=O)c2cccc(C(F)(F)F)c2)CCOC(c2cnc(C(F)(F)F)nc2)C1` (stereo not shown) [SC-305, 5-[4-Methyl-4-[[3-(trifluoromethyl)phenyl]sulfonyl]-tetrahydro-pyran-2-yl]-2-(trifluoromethyl)-pyrimidine], the “Activity Category: %-Inhib (CaV2.2) @3 μM @30 mM KCl” value (“Activity Category: %-Inhib” below) was “A (%-Inhibition >95%)”. `CC(C)c1nnc(C2CC(C)(S(=O)(=O)c3cccc(C(F)(F)F)c3)CCO2)o1` (single isomer, unassigned) [SC-126, 2-Isopropyl-5-[4-methyl-4-[[3-(trifluoromethyl)phenyl]sulfonyl]-tetrahydro-pyran-2-yl]-[1,3,4]oxadiazole] was tested, and the “Activity Category: %-Inhib” value was “B (%-Inhibition >75% up to ≤95%)”. `CC1(S(=O)(=O)c2cccc(C(F)(F)F)c2)CCOC(c2cncc(S(C)(=O)=O)c2)C1` (stereo not shown) [SC-100, 3-Methylsulfonyl-5-[4-methyl-4-[[3-(trifluoromethyl)phenyl]sulfonyl]-tetrahydro-pyran-2-yl]-pyridine] was tested, and the “Activity Category: %-Inhib” value was “C (%-Inhibition >40% up to ≤75%)”. `CC(C)c1nnc(C2CC(C)(S(=O)(=O)c3cccc(C(F)(F)F)c3)CCO2)o1` (single isomer, unassigned) [SC-125, 2-Isopropyl-5-[4-methyl-4-[[3-(trifluoromethyl)phenyl]sulfonyl]-tetrahydro-pyran-2-yl]-[1,3,4]oxadiazole] was tested, and the “Activity Category: %-Inhib” value was “C (%-Inhibition >40% up to ≤75%)”. For `CCC1(S(=O)(=O)c2cccc(C(F)(F)F)c2)CCOC(c2ccc(C(F)(F)F)cn2)C1` (stereo not shown) [SC-107, 2-[4-Ethyl-4-[[3-(trifluoromethyl)phenyl]sulfonyl]-tetrahydro-pyran-2-yl]-5-(trifluoromethyl)-pyridine], the “Activity Category: %-Inhib” value was “A (%-Inhibition >95%)”. In the case of `C[S+]([O-])c1cc(C(F)(F)F)cnc1C1CC(C)(S(=O)(=O)c2cccc(C(F)(F)F)c2)CCO1` (stereo not shown) [SC-229, 3-(Methylsulfinyl)-2-[4-methyl-4-[[3-(trifluoromethyl)phenyl]sulfonyl]-tetrahydro-pyran-2-yl]-5-(trifluoromethyl)-pyridine], the “Activity Category: %-Inhib” value is reported as “B (%-Inhibition >75% up to ≤95%)”. With `CC1(S(=O)(=O)c2cccc(C(F)(F)F)c2)CCOC(c2cncc(C(F)(F)F)c2)C1` (single isomer, unassigned) [SC-116, 3-[4-Methyl-4-[[3-(trifluoromethyl)phenyl]sulfonyl]-tetrahydro-pyran-2-yl]-5-(trifluoromethyl)-pyridine] the “Activity Category: %-Inhib” value was “A (%-Inhibition >95%)”. With `CC1(S(=O)(=O)c2cccc(C(F)(F)F)c2)CCOC(c2ncc(C(F)(F)F)cc2S(C)(=O)=O)C1` (stereo not shown) [SC-356, 3-Methylsulfonyl-2-[4-methyl-4-[[3-(trifluoromethyl)phenyl]sulfonyl]-tetrahydro-pyran-2-yl]-5-(trifluoromethyl)-pyridine] the “Activity Category: %-Inhib” value was “A (%-Inhibition >95%)”. For `CC1(S(=O)(=O)c2cccc(C(F)(F)F)c2)CCOC(COc2ccc(C(F)(F)F)nc2)C1` (stereo not shown) [SC-209, 5-[[4-Methyl-4-[[3-(trifluoromethyl)phenyl]sulfonyl]-tetrahydro-pyran-2-yl]-methoxy]-2-(trifluoromethyl)-pyridine], the “Activity Category: %-Inhib” value was “A (%-Inhibition >95%)”. In the case of `COc1cc(OC(F)F)c(C2CC(C)(S(=O)(=O)c3cccc(C(F)(F)F)c3)CCO2)cn1` (stereo not shown) [SC-254, 4-(Difluoro-methoxy)-2-methoxy-5-[4-methyl-4-[[3-(trifluoromethyl)phenyl]sulfonyl]-tetrahydro-pyran-2-yl]-pyridine], the “Activity Category: %-Inhib” value is reported as “A (%-Inhibition >95%)”.

Same assay, conditions: HEK293, 3 μM test compound; alternative assay buffer 30 mM KCl (inactivated channel state); HEK293 cells stably expressing human CaV2.2; read-out: Activity Category: %-Inhib (CaV2.2) @3 μM @30 mM KCl
`C[S+]([O-])c1cnc(C2CC(C)(S(=O)(=O)c3cccc(C(F)(F)F)c3)CCO2)c(Cl)c1` (stereo not shown) [SC-233, 3-Chloro-5-(methylsulfinyl)-2-[4-methyl-4-[[3-(trifluoromethyl)phenyl]sulfonyl]-tetrahydro-pyran-2-yl]-pyridine] showed an inhibition at 3 µM of 40 to 75%. For `CC1(S(=O)(=O)c2cccc(C(F)(F)F)c2)CCOC(c2ccc(C3CC3)cn2)C1` (stereo not shown) [SC-103, 5-Cyclopropyl-2-[4-methyl-4-[[3-(trifluoromethyl)phenyl]sulfonyl]-tetrahydro-pyran-2-yl]-pyridine], the inhibition at 3 µM was greater than 95%. `CC1(S(=O)(=O)c2cccc(C(F)(F)F)c2)CCOC(c2ccc(S(C)(=O)=O)cn2)C1` (stereo not shown) [SC-104, 5-Methylsulfonyl-2-[4-methyl-4-[[3-(trifluoromethyl)phenyl]sulfonyl]-tetrahydro-pyran-2-yl]-pyridine] gave an inhibition at 3 µM of 75 to 95%. In the case of `CC1(S(=O)(=O)c2cccc(C(F)(F)F)c2)CCOC(c2ccc(Cl)cn2)C1` (stereo not shown) [SC-243, 5-Chloro-2-[4-methyl-4-[[3-(trifluoromethyl)phenyl]sulfonyl]-tetrahydro-pyran-2-yl]-pyridine], the inhibition at 3 µM is reported as greater than 95%. `CC1(S(=O)(=O)c2cccc(C(F)(F)F)c2)CCOC(COc2ccc(C(F)(F)F)nc2)C1` (stereo not shown) [SC-208, 5-[[4-Methyl-4-[[3-(trifluoromethyl)phenyl]sulfonyl]-tetrahydro-pyran-2-yl]-methoxy]-2-(trifluoromethyl)-pyridine] gave an inhibition at 3 µM of 75 to 95%. Work on `Cc1ccc(OCC2CC(C)(S(=O)(=O)c3cccc(C(F)(F)F)c3)CCO2)cn1` (stereo not shown) [SC-114, 2-Methyl-5-[[4-methyl-4-[[3-(trifluoromethyl)phenyl]sulfonyl]-tetrahydro-pyran-2-yl]-methoxy]-pyridine] yielded an inhibition at 3 µM of 75 to 95%. Work on `CC1(S(=O)(=O)c2cccc(C(F)(F)F)c2)CCOC(c2ccc(C3CC3)nc2)C1` (racemic) [SC-347, 2-Cyclopropyl-5-[4-methyl-4-[[3-(trifluoromethyl)phenyl]sulfonyl]-tetrahydro-pyran-2-yl]-pyridine] yielded an inhibition at 3 µM greater than 95%. Molecule `CCC1(S(=O)(=O)c2cccc(C(F)(F)F)c2)CCOC(c2nnc(C3CC3)o2)C1` (stereo not shown) [SC-206, 2-Cyclopropyl-5-[4-ethyl-4-[[3-(trifluoromethyl)phenyl]sulfonyl]-tetrahydro-pyran-2-yl]-[1,3,4]oxadiazole] has an inhibition at 3 µM of 40 to 75%. `CC1(S(=O)(=O)c2cccc(C(F)(F)F)c2)CCOC(c2ccc(OC(F)F)nc2)C1` (racemic) [SC-417, 2-(Difluoro-methoxy)-5-[4-methyl-4-[[3-(trifluoromethyl)phenyl]sulfonyl]-tetrahydro-pyran-2-yl]-pyridine] showed an inhibition at 3 µM greater than 95%. With `CC1(S(=O)(=O)c2cc(F)cc(C(F)F)c2)CCOC(c2ncc(S(C)(=O)=O)cc2Cl)C1` (stereo not shown) [SC-216, 3-Chloro-2-[4-[[3-(difluoro-methyl)-5-fluoro-phenyl]sulfonyl]-4-methyl-tetrahydro-pyran-2-yl]-5-methylsulfonyl-pyridine] the inhibition at 3 µM was 40 to 75%. In the case of `CC1(S(=O)(=O)c2cccc(C(F)(F)F)c2)CCOC(c2ncc(C3CC3)cc2Cl)C1` (racemic) [SC-435, 3-Chloro-5-cyclopropyl-2-[4-methyl-4-[[3-(trifluoromethyl)phenyl]sulfonyl]-tetrahydro-pyran-2-yl]-pyridine], the inhibition at 3 µM is reported as greater than 95%. `O=S(=O)(c1cccc(C(F)(F)F)c1)C1CCOC(c2cccc(C(F)(F)F)n2)C1` (stereo not shown) [SC-350, 2-(Trifluoromethyl)-6-[4-[[3-(trifluoromethyl)phenyl]sulfonyl]-tetrahydro-pyran-2-yl]-pyridine] was tested, and the inhibition at 3 µM was greater than 95%. `CC1(S(=O)(=O)c2cccc(C(F)(F)F)c2)CCOC(c2ccc(C(F)(F)F)nc2)C1` (racemic) [SC-306, 5-[4-Methyl-4-[[3-(trifluoromethyl)phenyl]sulfonyl]-tetrahydro-pyran-2-yl]-2-(trifluoromethyl)-pyridine] was tested, and the inhibition at 3 µM was greater than 95%. For `CC1(S(=O)(=O)c2cccc(C(F)(F)F)c2)CCOC(c2nnc(C3CC3)o2)C1` (stereo not shown) [SC-127, 2-Cyclopropyl-5-[4-methyl-4-[[3-(trifluoromethyl)phenyl]sulfonyl]-tetrahydro-pyran-2-yl]-[1,3,4]oxadiazole], the inhibition at 3 µM was 40 to 75%. Molecule `CCC1(S(=O)(=O)c2cccc(C(F)(F)F)c2)CCOC(c2ccc(C)nc2C)C1` (racemic) [SC-319, 3-[4-Ethyl-4-[[3-(trifluoromethyl)phenyl]sulfonyl]-tetrahydro-pyran-2-yl]-2,6-dimethyl-pyridine] has an inhibition at 3 µM of 40 to 75%. For `CC1(S(=O)(=O)c2cccc(C(F)(F)F)c2)CCOC(c2ncc(Cl)cc2S(C)(=O)=O)C1` (stereo not shown) [SC-226, 5-Chloro-3-methylsulfonyl-2-[4-methyl-4-[[3-(trifluoromethyl)phenyl]sulfonyl]-tetrahydro-pyran-2-yl]-pyridine], the inhibition at 3 µM was 75 to 95%. `CCC1(S(=O)(=O)c2cccc(C(F)(F)F)c2)CCOC(c2cccc(C)n2)C1` (stereo not shown) [SC-324, 2-[4-Ethyl-4-[[3-(trifluoromethyl)phenyl]sulfonyl]-tetrahydro-pyran-2-yl]-6-methyl-pyridine] gave an inhibition at 3 µM of 75 to 95%. Work on `CC1(S(=O)(=O)c2cccc(C(F)(F)F)c2)CCOC(c2ncc(S(C)(=O)=O)cc2C2CC2)C1` (stereo not shown) [SC-270, 3-cyclopropyl-2-(4-methyl-4-(3-(trifluoromethyl)phenylsulfonyl)tetrahydro-2H-pyran-2-yl)-5-(methylsulfonyl)pyridine] yielded an inhibition at 3 µM of 75 to 95%. For `COc1cc(F)c(C2CC(C)(S(=O)(=O)c3cccc(C(F)(F)F)c3)CCO2)cn1` (stereo not shown) [SC-257, 4-Fluoro-2-methoxy-5-[4-methyl-4-[[3-(trifluoromethyl)phenyl]sulfonyl]-tetrahydro-pyran-2-yl]-pyridine], the inhibition at 3 µM was 75 to 95%. `COc1cc(OC(F)F)c(C2CC(C)(S(=O)(=O)c3cccc(C(F)(F)F)c3)CCO2)cn1` (stereo not shown) [SC-253, 4-(Difluoro-methoxy)-2-methoxy-5-[4-methyl-4-[[3-(trifluoromethyl)phenyl]sulfonyl]-tetrahydro-pyran-2-yl]-pyridine] showed an inhibition at 3 µM of 75 to 95%. With `CCC1(S(=O)(=O)c2cccc(C(F)(F)F)c2)CCOC(c2cccnc2C)C1` (stereo not shown) [SC-312, 3-[4-Ethyl-4-[[3-(trifluoromethyl)phenyl]sulfonyl]-tetrahydro-pyran-2-yl]-2-methyl-pyridine] the inhibition at 3 µM was 40 to 75%.
